Literature values, collected in patent US7618987B2, “Acylated piperidine derivatives as melanocortin 4-receptor agonists” (Merck & Co., Inc., priority 2004, dated 2009).

Key:
[1] = in vivo, po
[2] = test system: males with psychogenic erectile dysfunction

## Ac-Nle-c[Asp-His-DPhe-Arg-Trp-Lys]-NH2 [MT-II]
[1]
  absorption into the systemic circulation: not absorbed into the systemic circulation
[2]; in vivo
  adverse reactions observed: nausea, flushing, loss of appetite, stretching, and yawning
  duration of action: approximately 2.5 hours
  time to onset of erection: 10 to 20 min
[2]; injected intramuscularly or subcutaneously
  response rate: 75%
